Assay results from ChEMBL document CHEMBL1201862, “PubChem BioAssay data set” (2004).
The source made the active and inactive calls.

Key:
Mucolipin-3 = Mucolipin-3 (Homo sapiens, UniProt Q8TDD5); test: Dose response cell-based high-throughput screening assay for agonists of the transient receptor potential channel ML3 (TRPML3). [Related pubchem assays: 1526, 1424, 1448 ]; assay type: functional
Ion channel NompC = Ion channel NompC (Danio rerio, UniProt Q7T1G6); test: Fluorescence counterscreen assay for TRPML3 agonists: dose response cell-based high-throughput screening assay to identify agonists of the transient receptor potential channel N1 (TRPN1). [Related pubchem assays: 1526, 1424, 1448 ]; assay type: functional
[1] = HEp-2 cell cytotoxicity, dose response, cytotoxicity control for RSV inhibitor project, HTS (AID 2410); assay type: functional; settings: human respiratory syncytial virus
[2] = target: T1, Mannose-6-phosphate isomerase (Homo sapiens, UniProt P34949); test: inhibitors of human PMI, primary screen, biochemical, fluorescence intensity, coupled assay (AID 1209)
T1 sequence (P34949 whole entry): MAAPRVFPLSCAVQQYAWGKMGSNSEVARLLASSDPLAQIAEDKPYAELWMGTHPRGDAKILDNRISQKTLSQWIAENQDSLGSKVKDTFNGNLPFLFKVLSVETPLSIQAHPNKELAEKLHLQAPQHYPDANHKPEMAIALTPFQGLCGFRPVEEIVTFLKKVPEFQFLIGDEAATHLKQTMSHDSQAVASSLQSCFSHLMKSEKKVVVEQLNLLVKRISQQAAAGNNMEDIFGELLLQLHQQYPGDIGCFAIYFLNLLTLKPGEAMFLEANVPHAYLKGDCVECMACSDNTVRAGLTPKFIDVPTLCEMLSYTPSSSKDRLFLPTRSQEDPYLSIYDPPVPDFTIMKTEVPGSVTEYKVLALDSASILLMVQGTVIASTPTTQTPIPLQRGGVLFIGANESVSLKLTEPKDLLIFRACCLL

[3] = NIH-3T3 fibroblast cytotoxicity, dose response, cytotoxicity control, cell-based, fluorescence, Alamar Blue, secondary assay (AID 2327); assay type: functional;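 note: NIH-3T3 mouse fibroblasts cultured with fluconazole at 8 µg/mL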
HEK293 [4] = test: NOD1 signaling inhibitors, primary screen, cell-based, luminescence, uHTS (AID 1578); assay type: functional; settings: Homo sapiens
BJ [5] = test: cytotoxicity toward BJ-TERT fibroblasts, dose response, cell-based, RAS-independent, luminescence (AID 1933); assay type: functional; settings: Homo sapiens
HEK293 [6] = test: cells; assay type: functional, cell-based; settings: Homo sapiens
BJ [7] = test: cells; assay type: functional, cell-based; settings: Homo sapiens
[8] = C. albicans growth with fluconazole, confirmation, fluorescence, retest (AID 2467); assay type: functional, cell-based
HEK293 [9] = test: cells; assay type: functional, cell-based; settings: Homo sapiens; remark: listed apart in the source
[10] = target: Nucleotide-binding oligomerization domain-containing protein 2 (Homo sapiens, UniProt Q9HC29); test: NOD2 signaling inhibitors, cell-based, luminescence, uHTS, HEK293 (AID 1566); assay type: functional
HEK293 [11] = test: NOD2 signaling inhibitors in MDP-stimulated cells, cell-based, uHTS, luminescence (AID 2001); assay type: functional; settings: Homo sapiens
HEK293 [12] = test: cells; assay type: functional, cell-based; settings: Homo sapiens; remark: listed apart in the source
[13] = target: T2, Serine/threonine-protein phosphatase (Candida dubliniensis (strain CD36 / CBS 7987 / NCPF 3949 / NRRLY-17841) (Yeast), UniProt B9W6M3); test: calcineurin pathway inhibitors in yeast reporter, dose response, S. cerevisiae, CDRE-lacZ, luminescence, secondary (AID 2388); assay type: functional, cell-based;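 note: yeast reporter cells carrying a calcineurin-responsive lacZ construct stimulated with calcium chloride; luminescent beta-galactosidase reporter signal in whole cells rather than isolated phosphatase activity; potency for inhibition where a drop in reporter signal means calcineurin blockade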
T2 sequence (B9W6M3 whole entry): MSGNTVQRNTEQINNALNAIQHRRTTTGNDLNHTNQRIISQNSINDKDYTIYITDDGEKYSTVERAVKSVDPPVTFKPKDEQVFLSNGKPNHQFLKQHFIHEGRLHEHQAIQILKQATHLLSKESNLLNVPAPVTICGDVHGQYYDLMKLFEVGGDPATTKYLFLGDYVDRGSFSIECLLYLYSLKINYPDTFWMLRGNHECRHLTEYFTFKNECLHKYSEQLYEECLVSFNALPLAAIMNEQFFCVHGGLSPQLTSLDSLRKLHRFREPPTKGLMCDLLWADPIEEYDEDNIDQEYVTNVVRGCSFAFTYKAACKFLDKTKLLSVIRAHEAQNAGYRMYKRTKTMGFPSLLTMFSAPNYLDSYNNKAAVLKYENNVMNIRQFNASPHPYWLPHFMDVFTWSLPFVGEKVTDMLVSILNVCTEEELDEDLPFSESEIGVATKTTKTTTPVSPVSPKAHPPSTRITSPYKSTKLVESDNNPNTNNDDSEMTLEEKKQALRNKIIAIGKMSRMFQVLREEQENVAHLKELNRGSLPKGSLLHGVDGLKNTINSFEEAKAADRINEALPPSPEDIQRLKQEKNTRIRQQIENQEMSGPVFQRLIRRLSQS

[14] = target: Voltage-gated inwardly rectifying potassium channel KCNH2 (Homo sapiens, UniProt Q12809); test: hERG protection from proarrhythmic block, potency, dose response, cell-based, thallium flux (AID 2121); assay type: ADME
Voltage-gated inwardly rectifying potassium channel KCNH2, sequence (Q12809 whole entry): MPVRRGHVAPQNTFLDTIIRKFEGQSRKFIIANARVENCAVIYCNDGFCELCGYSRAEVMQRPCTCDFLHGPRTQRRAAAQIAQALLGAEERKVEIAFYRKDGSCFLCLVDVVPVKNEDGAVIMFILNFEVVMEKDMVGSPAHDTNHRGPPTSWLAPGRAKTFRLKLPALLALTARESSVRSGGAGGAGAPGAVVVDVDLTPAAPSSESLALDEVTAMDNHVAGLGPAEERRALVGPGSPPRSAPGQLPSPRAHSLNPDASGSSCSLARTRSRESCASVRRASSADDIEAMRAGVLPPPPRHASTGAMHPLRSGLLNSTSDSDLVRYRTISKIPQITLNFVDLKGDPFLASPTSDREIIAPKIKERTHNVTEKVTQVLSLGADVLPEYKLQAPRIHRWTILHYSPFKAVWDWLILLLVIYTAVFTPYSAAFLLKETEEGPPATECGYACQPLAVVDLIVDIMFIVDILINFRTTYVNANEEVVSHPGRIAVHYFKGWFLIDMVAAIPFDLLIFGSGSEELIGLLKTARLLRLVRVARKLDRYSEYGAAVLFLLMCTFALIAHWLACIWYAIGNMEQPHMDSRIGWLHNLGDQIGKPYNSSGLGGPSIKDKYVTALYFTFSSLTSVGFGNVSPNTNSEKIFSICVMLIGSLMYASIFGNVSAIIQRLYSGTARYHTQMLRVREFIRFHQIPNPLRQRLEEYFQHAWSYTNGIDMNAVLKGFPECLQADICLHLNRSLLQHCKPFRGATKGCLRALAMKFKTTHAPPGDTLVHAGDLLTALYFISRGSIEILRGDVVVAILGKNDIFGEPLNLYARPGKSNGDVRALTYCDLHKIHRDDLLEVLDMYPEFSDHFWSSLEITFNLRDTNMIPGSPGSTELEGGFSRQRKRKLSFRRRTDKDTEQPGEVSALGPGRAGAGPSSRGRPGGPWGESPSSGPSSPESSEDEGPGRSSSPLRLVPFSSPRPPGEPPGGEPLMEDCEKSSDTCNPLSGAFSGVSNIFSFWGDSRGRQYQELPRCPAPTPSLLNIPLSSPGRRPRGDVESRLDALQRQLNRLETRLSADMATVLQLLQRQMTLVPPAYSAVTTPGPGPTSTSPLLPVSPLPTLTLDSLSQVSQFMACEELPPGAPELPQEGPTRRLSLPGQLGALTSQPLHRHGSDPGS

BJ [15] = test: cytotoxicity toward BJ-TERT-LT-ST fibroblasts, dose response, cell-based, RAS-independent, luminescence (AID 1935); assay type: functional; settings: Homo sapiens;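 note: BJ fibroblasts immortalized with TERT plus LT and ST oncogenes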
[16] = cytotoxicity toward DRD oncogenic fibroblasts, dose response, cell-based, non-viral oncogenic, luminescence (AID 1934); assay type: functional; settings: Homo sapiens
HEK293 [17] = test: inhibitors of LMP1-driven NF-kB reporter, dose response, cell-based, HEK293, luciferase, cherry-pick (AID 588343); assay type: functional; settings: Homo sapiens
[18] = target: Heat shock protein HSP 90-alpha (Homo sapiens, UniProt P07900); assay type: functional, organism-based
Vero [19] = test: cells; assay type: functional, cell-based; settings: Chlorocebus sabaeus
BJ [20] = test: cytotoxicity toward Ras-transformed BJeLR fibroblasts, dose response, cell-based, alamar blue fluorescence, cherrypicked samples (AID 2631); assay type: functional; settings: Homo sapiens;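 note: confirmatory dose-response assay in RAS-dependent BJ fibroblasts engineered with TERT, LT and ST, with cytotoxicity read by fluorescence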
INS1 = test: beta cell apoptosis inhibitors, cytokine rescue, dose response, luminescence, retest (AID 449756); assay type: functional, cell-based; settings: Rattus norvegicus;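 note: cell death triggered by IL-1 beta plus TNF-alpha plus IFN-gamma mixture; protective hits raise ATP signal compared with cytokine alone wells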
Vero [21] = test: cells; assay type: functional; settings: Chlorocebus sabaeus
[22] = target: ATP-dependent molecular chaperone HSP82 (Candida albicans (strain WO-1) (Yeast), UniProt C4YTQ8); test: loss of DOC-induced GRE-beta-galactosidase reporter signal, dose response, Hsp90 inhibitor project, S. cerevisiae, luminescence (AID 2400); assay type: functional, cell-based;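 note: beta-galactosidase luminescence from glucocorticoid response element reporter as proxy for Hsp90 function; inhibitor potency where signal loss means Hsp90 inhibition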
ATP-dependent molecular chaperone HSP82, sequence (C4YTQ8 whole entry, the tested form may be a part): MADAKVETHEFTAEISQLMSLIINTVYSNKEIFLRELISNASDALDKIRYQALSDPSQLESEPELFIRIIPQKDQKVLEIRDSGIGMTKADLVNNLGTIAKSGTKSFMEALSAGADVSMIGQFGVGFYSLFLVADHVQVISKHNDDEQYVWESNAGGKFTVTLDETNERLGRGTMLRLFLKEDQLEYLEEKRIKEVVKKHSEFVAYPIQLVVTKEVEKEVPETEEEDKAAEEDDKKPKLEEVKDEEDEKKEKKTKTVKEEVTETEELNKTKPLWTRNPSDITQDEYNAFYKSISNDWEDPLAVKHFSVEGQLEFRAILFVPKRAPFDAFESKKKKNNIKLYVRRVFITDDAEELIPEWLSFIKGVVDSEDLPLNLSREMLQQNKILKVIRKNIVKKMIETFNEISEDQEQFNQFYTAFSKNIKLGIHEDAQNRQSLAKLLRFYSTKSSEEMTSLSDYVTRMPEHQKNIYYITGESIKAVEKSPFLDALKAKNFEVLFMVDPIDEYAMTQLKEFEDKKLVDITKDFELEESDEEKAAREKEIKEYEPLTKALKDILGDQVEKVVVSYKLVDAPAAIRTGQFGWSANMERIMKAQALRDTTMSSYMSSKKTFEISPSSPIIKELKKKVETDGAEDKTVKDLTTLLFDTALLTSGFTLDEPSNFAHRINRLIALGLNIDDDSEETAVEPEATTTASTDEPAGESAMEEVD

[23] = target: T3, RNA-binding protein pos-1 (Caenorhabditis elegans, UniProt G5EF15); test: inhibitors of POS-1/mex-3 RNA binding, dose response, biochemical, fluorescence polarization (AID 1964);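 note: purified POS-1 fused to maltose binding protein made in E. coli; potency of compounds blocking POS-1 binding to fluorescent RNA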
T3 sequence (G5EF15 whole entry): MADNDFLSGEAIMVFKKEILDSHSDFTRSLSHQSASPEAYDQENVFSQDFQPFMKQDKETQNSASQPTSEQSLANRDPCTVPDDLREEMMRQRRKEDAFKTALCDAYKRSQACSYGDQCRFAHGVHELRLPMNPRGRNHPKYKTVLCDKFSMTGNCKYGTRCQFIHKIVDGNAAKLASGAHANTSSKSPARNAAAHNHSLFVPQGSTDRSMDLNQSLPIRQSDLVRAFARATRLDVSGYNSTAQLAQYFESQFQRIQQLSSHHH

[24] = Counterscreen for IDE inhibitors: Luminescence-based cell-based high throughput dose response assay to identify compounds that are cytotoxic to HEK cells. [Related pubchem assays: 434962 (Primary screen (IDE inhibitors in singlicate)), 449730 (Counterscreen (Cytotoxicity in triplicate)), 435028 (Confirmation (IDE inhibitors in triplicate)) …; assay type: functional; settings: HEK293
[25] = target: T4, Zinc finger protein mex-5 (Caenorhabditis elegans, UniProt Q9XUB2); test: MEX-5/TCR-2 RNA interaction inhibitors, dose response, biochemical, C. elegans, fluorescence polarization (AID 1960)
T4 sequence (Q9XUB2 whole entry): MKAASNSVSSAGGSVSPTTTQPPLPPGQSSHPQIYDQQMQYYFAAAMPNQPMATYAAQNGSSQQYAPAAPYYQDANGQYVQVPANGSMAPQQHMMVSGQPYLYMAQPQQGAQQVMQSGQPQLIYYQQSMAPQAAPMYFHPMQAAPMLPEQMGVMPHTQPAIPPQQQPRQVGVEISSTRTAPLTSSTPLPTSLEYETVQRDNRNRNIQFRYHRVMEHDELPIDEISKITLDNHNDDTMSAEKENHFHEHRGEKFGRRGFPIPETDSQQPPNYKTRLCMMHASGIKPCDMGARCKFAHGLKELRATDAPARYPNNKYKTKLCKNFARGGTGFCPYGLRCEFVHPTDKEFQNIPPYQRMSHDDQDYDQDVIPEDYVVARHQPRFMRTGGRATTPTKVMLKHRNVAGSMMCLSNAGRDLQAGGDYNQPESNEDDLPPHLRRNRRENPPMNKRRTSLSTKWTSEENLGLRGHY

Insulin-degrading enzyme = target: T5, Insulin-degrading enzyme (Homo sapiens, UniProt P14735); test: Dose Response: Fluorescence polarization-based cell-based high throughput dose response assay for inhibitors of insulin-degrading enzyme (IDE). [Related pubchem assays: 434962 (Primary screen (IDE inhibitors in singlicate)), 449730 (Counterscreen (Cytotoxicity in triplicate)), 435028 (Confirmation (IDE inhibitors in triplicate)), 434984 (Summary …; assay type: functional
T5 sequence (P14735 whole entry): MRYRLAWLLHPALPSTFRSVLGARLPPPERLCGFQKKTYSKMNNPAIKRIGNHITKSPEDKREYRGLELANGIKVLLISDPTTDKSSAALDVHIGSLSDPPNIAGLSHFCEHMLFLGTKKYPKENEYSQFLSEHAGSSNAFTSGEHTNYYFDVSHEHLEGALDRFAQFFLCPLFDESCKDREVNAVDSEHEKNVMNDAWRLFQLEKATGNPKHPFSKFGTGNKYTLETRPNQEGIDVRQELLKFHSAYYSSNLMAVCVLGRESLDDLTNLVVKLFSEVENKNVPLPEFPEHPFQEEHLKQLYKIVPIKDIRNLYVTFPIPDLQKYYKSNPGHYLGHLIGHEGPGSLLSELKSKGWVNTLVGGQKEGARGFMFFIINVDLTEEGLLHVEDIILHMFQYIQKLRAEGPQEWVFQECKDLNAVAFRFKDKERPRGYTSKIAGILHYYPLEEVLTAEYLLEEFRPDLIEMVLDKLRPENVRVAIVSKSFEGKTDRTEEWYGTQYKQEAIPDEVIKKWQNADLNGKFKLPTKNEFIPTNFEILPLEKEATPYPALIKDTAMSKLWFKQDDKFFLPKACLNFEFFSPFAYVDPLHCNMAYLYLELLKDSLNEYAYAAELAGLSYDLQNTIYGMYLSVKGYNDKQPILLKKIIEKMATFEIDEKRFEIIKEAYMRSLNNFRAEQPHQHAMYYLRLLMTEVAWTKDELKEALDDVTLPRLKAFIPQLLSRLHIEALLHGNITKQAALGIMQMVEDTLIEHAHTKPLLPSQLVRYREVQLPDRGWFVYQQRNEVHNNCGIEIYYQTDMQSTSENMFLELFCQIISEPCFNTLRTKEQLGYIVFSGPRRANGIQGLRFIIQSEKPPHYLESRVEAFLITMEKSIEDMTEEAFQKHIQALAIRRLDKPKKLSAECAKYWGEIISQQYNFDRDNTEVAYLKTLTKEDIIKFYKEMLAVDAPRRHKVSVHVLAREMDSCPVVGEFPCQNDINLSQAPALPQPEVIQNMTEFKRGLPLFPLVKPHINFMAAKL

[26] = target: 26S proteasome non-ATPase regulatory subunit 14 (Homo sapiens, UniProt O00487); test: inhibition of proteasome subunit RPN11 – biochemical, fluorescence polarization, uHTS hits, confirmation (AID 602368); assay type: functional
[27] = target: 72 kDa type IV collagenase (Homo sapiens, UniProt P08253); test: Dose Response validation of uHTS RPN11 inhibitor hits using a MMP-2 Fluorescence assay.; assay type: functional
72 kDa type IV collagenase, sequence (P08253 whole entry): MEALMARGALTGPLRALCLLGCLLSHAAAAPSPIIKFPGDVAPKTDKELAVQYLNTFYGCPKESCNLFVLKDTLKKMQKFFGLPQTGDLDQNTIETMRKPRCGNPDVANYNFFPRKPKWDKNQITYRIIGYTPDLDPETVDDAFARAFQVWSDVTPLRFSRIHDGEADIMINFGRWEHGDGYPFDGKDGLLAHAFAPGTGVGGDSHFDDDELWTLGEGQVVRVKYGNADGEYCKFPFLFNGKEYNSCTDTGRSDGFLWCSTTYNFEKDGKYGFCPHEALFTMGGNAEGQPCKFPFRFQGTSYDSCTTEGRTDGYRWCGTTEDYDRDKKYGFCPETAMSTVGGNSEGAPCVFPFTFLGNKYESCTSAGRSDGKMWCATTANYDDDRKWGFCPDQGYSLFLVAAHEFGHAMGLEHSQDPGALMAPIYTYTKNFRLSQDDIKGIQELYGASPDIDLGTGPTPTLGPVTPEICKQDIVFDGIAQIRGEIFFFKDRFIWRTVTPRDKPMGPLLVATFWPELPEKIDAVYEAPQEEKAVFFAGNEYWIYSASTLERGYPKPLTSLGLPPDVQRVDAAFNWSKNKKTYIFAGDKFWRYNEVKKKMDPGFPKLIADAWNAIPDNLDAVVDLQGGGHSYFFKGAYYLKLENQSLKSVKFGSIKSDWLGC

Prothrombin = Prothrombin (Bos taurus, UniProt P00735); test: thrombin inhibition, dose response, biochemical, fluorescence polarization, uHTS hits (AID 602369); assay type: functional
[28] = target: Peroxisome proliferator-activated receptor gamma/Nuclear receptor coactivator 2 (Homo sapiens, UniProt P37231); assay type: functional;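 note: agonist potency for raising coactivator recruitment to the receptor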
[29] = target: Peroxisome proliferator-activated receptor gamma/Nuclear receptor coactivator 1 (Homo sapiens, UniProt P37231); assay type: functional;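 note: agonist potency as compounds enhance coactivator SRC-1 recruitment to PPARgamma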
[30] = target: Peroxisome proliferator-activated receptor gamma/Nuclear receptor coactivator 3 (Homo sapiens, UniProt P37231); assay type: functional;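 note: agonist potency for raising coactivator recruitment to the receptor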
Peroxisome proliferator-activated receptor gamma/Nuclear receptor coactivator 3, sequence (P37231 whole entry): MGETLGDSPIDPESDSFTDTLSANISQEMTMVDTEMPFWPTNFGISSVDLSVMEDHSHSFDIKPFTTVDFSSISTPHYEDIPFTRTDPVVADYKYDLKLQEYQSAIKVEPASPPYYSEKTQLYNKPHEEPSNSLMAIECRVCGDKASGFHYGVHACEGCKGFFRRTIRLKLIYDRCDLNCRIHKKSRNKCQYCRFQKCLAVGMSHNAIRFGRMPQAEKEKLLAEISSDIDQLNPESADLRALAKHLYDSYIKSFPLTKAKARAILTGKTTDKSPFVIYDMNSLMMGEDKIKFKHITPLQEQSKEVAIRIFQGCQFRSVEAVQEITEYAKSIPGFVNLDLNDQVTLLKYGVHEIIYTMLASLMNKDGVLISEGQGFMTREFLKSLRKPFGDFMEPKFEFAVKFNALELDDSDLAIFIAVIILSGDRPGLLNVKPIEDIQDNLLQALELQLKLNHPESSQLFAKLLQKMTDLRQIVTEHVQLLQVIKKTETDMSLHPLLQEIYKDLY
Peroxisome proliferator-activated receptor gamma/Nuclear receptor coactivator 3, sequence (Q9Y6Q9 whole entry, further chain): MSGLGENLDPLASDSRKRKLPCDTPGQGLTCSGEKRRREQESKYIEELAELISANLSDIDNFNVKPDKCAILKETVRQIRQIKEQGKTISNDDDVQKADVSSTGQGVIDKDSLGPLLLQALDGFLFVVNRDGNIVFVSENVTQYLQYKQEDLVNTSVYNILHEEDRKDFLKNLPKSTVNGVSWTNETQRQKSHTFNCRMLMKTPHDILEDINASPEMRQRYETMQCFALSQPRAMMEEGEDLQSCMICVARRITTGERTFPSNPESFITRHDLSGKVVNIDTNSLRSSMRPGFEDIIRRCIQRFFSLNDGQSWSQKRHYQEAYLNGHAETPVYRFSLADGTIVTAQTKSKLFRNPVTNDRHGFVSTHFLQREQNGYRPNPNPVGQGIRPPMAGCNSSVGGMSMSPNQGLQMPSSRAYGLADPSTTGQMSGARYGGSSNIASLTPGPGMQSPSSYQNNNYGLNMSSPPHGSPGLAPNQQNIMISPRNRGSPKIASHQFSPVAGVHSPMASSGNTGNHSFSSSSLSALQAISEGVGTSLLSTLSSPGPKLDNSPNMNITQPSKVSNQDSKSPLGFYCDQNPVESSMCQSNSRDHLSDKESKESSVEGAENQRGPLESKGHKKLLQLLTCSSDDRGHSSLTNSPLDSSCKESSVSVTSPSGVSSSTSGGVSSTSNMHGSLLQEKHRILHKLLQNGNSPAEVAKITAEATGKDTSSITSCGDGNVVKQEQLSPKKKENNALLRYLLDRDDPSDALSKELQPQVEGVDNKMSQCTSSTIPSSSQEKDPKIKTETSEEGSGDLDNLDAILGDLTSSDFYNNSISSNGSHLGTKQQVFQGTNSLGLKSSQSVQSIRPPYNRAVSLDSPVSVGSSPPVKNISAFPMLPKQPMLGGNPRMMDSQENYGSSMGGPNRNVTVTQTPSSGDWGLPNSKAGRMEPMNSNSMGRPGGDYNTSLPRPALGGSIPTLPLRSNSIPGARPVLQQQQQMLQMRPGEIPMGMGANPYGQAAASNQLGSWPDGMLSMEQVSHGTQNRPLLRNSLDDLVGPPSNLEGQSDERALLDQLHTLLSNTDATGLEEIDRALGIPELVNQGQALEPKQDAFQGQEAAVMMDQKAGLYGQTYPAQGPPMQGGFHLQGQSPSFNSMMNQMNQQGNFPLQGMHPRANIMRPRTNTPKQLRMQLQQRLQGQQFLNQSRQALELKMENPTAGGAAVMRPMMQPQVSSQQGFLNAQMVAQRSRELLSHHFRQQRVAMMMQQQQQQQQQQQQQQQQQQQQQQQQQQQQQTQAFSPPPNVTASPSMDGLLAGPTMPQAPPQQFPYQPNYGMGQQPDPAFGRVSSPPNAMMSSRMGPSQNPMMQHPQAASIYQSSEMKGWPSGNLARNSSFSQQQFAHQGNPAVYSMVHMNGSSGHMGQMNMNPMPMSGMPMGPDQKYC

Mucolipin-3, sequence (Q8TDD5 whole entry): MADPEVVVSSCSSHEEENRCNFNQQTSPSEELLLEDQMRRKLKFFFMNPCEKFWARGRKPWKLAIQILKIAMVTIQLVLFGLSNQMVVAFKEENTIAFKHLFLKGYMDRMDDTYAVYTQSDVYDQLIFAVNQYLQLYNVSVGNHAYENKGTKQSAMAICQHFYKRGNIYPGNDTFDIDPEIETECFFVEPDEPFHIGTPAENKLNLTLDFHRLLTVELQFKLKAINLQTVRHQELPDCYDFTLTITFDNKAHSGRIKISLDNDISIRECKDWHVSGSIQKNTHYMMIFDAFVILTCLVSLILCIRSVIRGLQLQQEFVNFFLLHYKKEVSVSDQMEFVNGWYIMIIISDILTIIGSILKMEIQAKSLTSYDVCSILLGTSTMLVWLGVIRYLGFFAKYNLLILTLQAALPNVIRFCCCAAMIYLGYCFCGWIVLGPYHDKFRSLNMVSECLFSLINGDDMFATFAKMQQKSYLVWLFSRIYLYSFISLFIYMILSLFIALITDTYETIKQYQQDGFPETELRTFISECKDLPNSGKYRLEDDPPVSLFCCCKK

SMILES: Cc1ccc(S(=O)(=O)N2CC3CCCC2C3)cc1 (stereo unspecified)
- EC50 (Mucolipin-3): 3.78 µM (active)
- EC50 (Ion channel NompC): > 29.9 µM (not active)

SMILES: CCN(CC(=O)Nc1cc(Cl)ccc1C)C(=O)CSCc1ccc(C)cc1
- CC50 [1]: 24.5 µM (active)
- IC50 (cells): 22.8 µM (active)

SMILES: CCOc1ccc2c(c1)C(C)=CC(C)(C)N2C(=O)Nc1ccccc1
- IC50 [2]: > 50 µM (not active)

SMILES: COc1cccc(N=Nc2ccc(O)c3ncccc23)c1
- EC50 [3]: > 160 µM (inactive)
- EC50 (HEK293 [4]): 3.74 µM (active)
- EC50 (BJ [5]): 7.7 µM (inconclusive)
- IC50 (HEK293 [6]): 3.04 µM (active)
- EC50 (BJ [7]): 2.8 µM (inconclusive)
- EC50 [8]: 0.79 µM (active)
- IC50 (HEK293 [9]): > 20 µM (inactive)
- EC50 [10]: > 20 µM (inactive)
- IC50 (HEK293 [11]): 3.4 µM (inactive)
- IC50 (HEK293 [12]): > 20 µM (inactive)
- EC50 [13]: > 180 µM (inactive)
- EC50 [14]: 2.99 µM (active)
- EC50 (BJ [15]): 8.08 µM (inconclusive)
- EC50 [16]: 12.7 µM (inconclusive)
- AC50 (HEK293 [17]): 3.6 µM (active)
- AC50 [18]: 4.01 µM (active)
- IC50 (Vero [19]): > 25 µM (active)
- EC50 (BJ [20]): 1.05 µM (active)
- AC50 (INS1): 2.1 µM (active)
- CC50 (Vero [21]): 6.41 µM (active)
- EC50 [22]: 13.6 µM (active)

SMILES: COc1cc(OC)c(OC)cc1/C=C1\Oc2cc(OS(C)(=O)=O)ccc2C1=O
- EC50 [23]: > 300 µM (not active)
- IC50 [24]: > 55.7 µM (not active)
- EC50 [25]: > 300 µM (not active)
- IC50 (Insulin-degrading enzyme): > 55.9 µM (not active)
- IC50 [26]: 4.35 µM (active)
- IC50 [27]: > 100 µM (inactive)
- IC50 (Prothrombin): 0.468 µM (active)

SMILES: CC(=O)Nc1c(O)nc(SCC(=O)Nc2ccc(C(C)=O)cc2)[nH]c1=O
- EC50 [28]: > 79.4 µM (not active)
- EC50 [29]: > 79.4 µM (not active)
- EC50 [30]: > 79.4 µM (not active)
